Reference: patent US20170216225A1, “METHOD FOR ANTICOAGULATION” (priority 2016, published 2017)

Legend:
Assay type in all cases: in vivo
[1] = test system: mice; assay: Tolerability of intraperitoneal IA in mice
Description: (§1) In other words, IA is not harmful to the health of mammals even at high doses.

[2] = test system: intrinsic pathway of coagulation system; assay: Activated partial thromboplastin time (aPTT) of plasma from IA-treated mice
Method: The 5- to 6-week old male C57BL/6JNar1 mice having body weights around 20 g were purchased from National Laboratory Animal Center, Taipei, Taiwan. Coagulation system in blood is composed of intrinsic and extrinsic pathways. The intrinsic pathway is assayed by activated thromboplastin time (aPTT) and the extrinsic pathway is assayed by prothrombin time (PT). Following intraperitoneal injection of various dose of IA, plasma was obtained at different periods of time and was assayed for aPTT and PT. aPTT and PT were assayed in a Stago ST4 coagulation analyzer (ST art 4, Diagnostica Stago, France). By carbon dioxide anesthesia of mice, blood was obtained by cardiac puncture using 3.2% sodium citrate mixing with blood at a ratio of 1:9. The blood was centrifuged at 2000g/rpm for 10 minutes to get the mouse plasma, which was assayed immediately. aPTT was assayed in 4-fold dilution of aPTT r reagent using kit-provided buffer solution as diluent. In aPTT assay, 0.1 mL of plasma was kept warm for 1 min at 37° C. in a barrette of 4 cuvettes in Stago ST4 coagulation analyzer, then 0.1 mL of 4 fold-diluted aPTT reagent and one steel ball were added and waited for 180 seconds. Finally, 0.1 mL of 25 mM CaCl2 solution was added for aPTT detection. To investigate the anticoagulation effect in the intrinsic pathway of coagulation system in the IA-treated mice, the aPTT was measured at different treatment times. Mouse (n=6) was intraperitoneally injected with 1 mL of 1000 ppm ([…]) IA, blood was drawn 1 hr, 2 hr, 3 hr, and 24 hr after IA injection. Ten mice were injected with vehicle (n=10) and were served as controls. Then, the aPTT of each group was measured. FIG. 2A is a diagram of Table 1-1. To investigate the anticoagulation effect in the intrinsic pathway of coagulation system the IA-treated mice, the aPTT was also measured under different doses of IA. Various doses of IA (1 ppm, 10 ppm, 100 ppm, 1,000 ppm) in 1 mL, were intraperitoneally injected into different groups of mice (n=6), respectively. Plasma was separated 3 hr later. Ten mice were injected with vehicle and were served as controls. The aPTT of each group was measured. FIG. 2B is a diagram of Table 1-2.

[3] = test system: rats; assay: Tolerability of IA in rats; conditions: 1 mL of 30,000 ppm IA
Description: as §1

[4] = test system: extrinsic pathway of coagulation system; assay: Prothrombin time (PT) of plasma from IA-treated mice
Method: The 5- to 6-week old male C57BL/6JNar1 mice having body weights around 20 g were purchased from National Laboratory Animal Center, Taipei, Taiwan.
Coagulation system in blood is composed of intrinsic and extrinsic pathways. The intrinsic pathway is assayed by activated thromboplastin time (aPTT) and the extrinsic pathway is assayed by prothrombin time (PT). Following intraperitoneal injection of various dose of IA, plasma was obtained at different periods of time and was assayed for aPTT and PT. aPTT and PT were assayed in a Stago ST4 coagulation analyzer (ST art 4, Diagnostica Stago, France).
By carbon dioxide anesthesia of mice, blood was obtained by cardiac puncture using 3.2% sodium citrate mixing with blood at a ratio of 1:9. The blood was centrifuged at 2000g/rpm for 10 minutes to get the mouse plasma, which was assayed immediately.
PT was assayed in 4-fold dilution of PT reagent, composed of four parts including one part of PT reagent, one part of 25 mM CaCl solution, and two parts of sterile water. In PT assay, 0.1 mL of plasma was put into each of 4 barrette cuvette, each of which had one steel ball, and was kept at 37° C. for 1 min in Stago ST4 coagulation analyzer. Then, 0.2 mL of the diluted PT reagent was added for PT detection.
Moreover, to investigate the anticoagulation effect in the extrinsic pathway of coagulation system in the IA-treated mice, the PT was measured at different treatment times. Different groups of mice (n=6) were respectively intraperitoneally injected with 1 mL of 1000 ppm ([…]) IA, blood was drawn 1 hr, 2 hr, 3 hr, and 24 hr after IA injection. Ten mice were injected with vehicle (n=10) and were served as controls. Then, the PT of each group was measured. FIG. 3A is a diagram of Table 2-1.
To investigate the anticoagulation effect in the extrinsic pathway of coagulation system in the IA-treated mice, the PT was also measured under different doses of IA. Various doses of IA (1 ppm, 10 ppm, 100 ppm, 1,000 ppm) in 1 mL, were intraperitoneally injected into different groups of mice (n=6), respectively. Plasma was separated 3 hr later. Ten mice were injected with vehicle and were served as controls. The PT of each group was measured. FIG. 3B is a diagram of Table 2-2.

[5] = 1 mL i.p., 3 hr after injection
[6] = 1 mL of 1000 ppm (0.05 mL/kg) IA i.p., treatment time 1 hr
[7] = 1 mL of 1000 ppm (0.05 mL/kg) IA i.p., treatment time 2 hr
[8] = 1 mL of 1000 ppm (0.05 mL/kg) IA i.p., treatment time 3 hr
[9] = 1 mL of 1000 ppm (0.05 mL/kg) IA i.p., treatment time 24 hr
[10] = injected dose 1 ppm in 1 mL i.p., 3 hr after injection
[11] = injected dose 10 ppm in 1 mL i.p., 3 hr after injection
[12] = injected dose 100 ppm in 1 mL i.p., 3 hr after injection
[13] = injected dose 1000 ppm in 1 mL i.p., 3 hr after injection

## CC(C)CCN [IA, 3-methyl-1-butanamine]
[1]; BALB/C mice (20 g), 1 mL of 20,000 ppm (0.1 mL/kg) i.p.
  Tolerance of intraperitoneal injection: could tolerate
[1]; mice, 1 mL of 1,000 ppm (0.05 mL/kg) IA
  Physiological state after IA: normal physiological state can be maintained
[2]; [5]
  Lowest dose with anticoagulation effect in the intrinsic pathway (aPTT prolonged, statistical meaning): 1 ppm
[2]; [6]
  Mean of aPTT: 30.8 s
[2]; [7]
  Mean of aPTT: 32.0 s
[2]; [8]
  Mean of aPTT: 33.7 s
[2]; [9]
  Mean of aPTT: 34.8 s
[2]; 1 mL of 1000 ppm IA i.p.
  Treatment time after which aPTT prolongation has statistical meaning: 1 h
[2]; [10]
  Mean of aPTT: 33.0 s
[2]; [11]
  Mean of aPTT: 33.0 s
[2]; [12]
  Mean of aPTT: 33.4 s
[2]; [13]
  Mean of aPTT: 33.7 s
[3]
  Physiological state after IA: normal physiological state can also be maintained
[4]; [5]
  Dose at which PT was obviously prolonged (statistical meaning): 1000 ppm
[4]; [6]
  Mean of PT: 11.6 s
[4]; [7]
  Mean of PT: 12.2 s
[4]; [8]
  Mean of PT: 12.6 s
[4]; [9]
  Mean of PT: 13.2 s
[4]; 1 mL of 1000 ppm IA i.p.
  Treatment time after which PT prolongation has statistical meaning: 2 h
[4]; [10]
  Mean of PT: 11.2 s
[4]; [11]
  Mean of PT: 11.4 s
[4]; [12]
  Mean of PT: 11.5 s
[4]; [13]
  Mean of PT: 12.6 s
